Test results published in EP3118202A1, “DIHYDROPYRIDOPYRROLE DERIVATIVES AS TAU-PET-LIGANDS” (AC Immune S.A., priority 2015, dated 2017).

How the values were obtained:
[1] = system: tau tangles/Aβ plaques on AD brain sections; assay: Direct staining of human Alzheimer's disease brain sections (Assay 1, fluorescence based assay); format: binding; parameters: key to Direct staining of tau tangles/Aβ plaques on AD brain sections at 100 µM: - (No); +++ (strong); ++ (good); + (weak); details: for Direct staining of tau tangles/Aβ plaques on AD brain sections at 100 µM: 100 µM in 50% ethanol in water, 20 min, room temperature, frozen amygdala sections, Braak stage V-VI; for Direct staining of tau tangles/Aβ plaques on AD brain sections at 100 µM: structure stained: structure (tangles or plaques) that was stained
Method: Assay 1 (Fluorescence based assay):
Direct binding of compounds of this invention to human Alzheimer's disease brain sections
Frozen sections with a thickness of […] from the amygdala of donors diagnosed with Braak stage V-VI Alzheimer's Disease (Braak, H.; Braak, E. Acta Neuropathol., 1991, 82, 239-259), were purchased from a commercial provider (Tissue Solutions) and kept at -80°C until use.
Direct staining of human Alzheimer's disease brain sections
Brain sections were encircled with pap pen liquid blocker to reduce the volume of solution for the different incubations. Sections were fixed for 15 min at 4°C with 4% paraformaldehyde and washed three times 5 minutes with PBS at room temperature. Test compounds were incubated on the sections at 100 µM in 50% ethanol in water for 20 min at room temperature in the dark and then washed three times 5 minutes with PBS. To reduce the auto-fluorescence of the tissue, the sections were incubated in a solution of 0.1% Sudan Black (Sigma 199664) in 70% ethanol for 15 min at room temperature in the dark, washed four times for 5 minutes with PBS, and mounted using ProLong Gold Antifade reagent (Invitrogen P36930). Sections were then analyzed on the Nikon Eclipse Ti microscope to detect staining and imaged using Nikon DS-Fi2 camera and NIS-Element AR4.13.1 software.

[2] = target: T1, MAO-A human - recombinant (Homo sapiens, UniProt P21397); assay: Monoamine oxidase A (MAO-A) assay (MAO-Glo Assay); format: biochemical; details: MAO substrate 40 µM; 1 hour at room temperature; read-out: MAO A binding
T1 construct: purchased Sigma-Aldrich M7316
T1 sequence (P21397 1-527): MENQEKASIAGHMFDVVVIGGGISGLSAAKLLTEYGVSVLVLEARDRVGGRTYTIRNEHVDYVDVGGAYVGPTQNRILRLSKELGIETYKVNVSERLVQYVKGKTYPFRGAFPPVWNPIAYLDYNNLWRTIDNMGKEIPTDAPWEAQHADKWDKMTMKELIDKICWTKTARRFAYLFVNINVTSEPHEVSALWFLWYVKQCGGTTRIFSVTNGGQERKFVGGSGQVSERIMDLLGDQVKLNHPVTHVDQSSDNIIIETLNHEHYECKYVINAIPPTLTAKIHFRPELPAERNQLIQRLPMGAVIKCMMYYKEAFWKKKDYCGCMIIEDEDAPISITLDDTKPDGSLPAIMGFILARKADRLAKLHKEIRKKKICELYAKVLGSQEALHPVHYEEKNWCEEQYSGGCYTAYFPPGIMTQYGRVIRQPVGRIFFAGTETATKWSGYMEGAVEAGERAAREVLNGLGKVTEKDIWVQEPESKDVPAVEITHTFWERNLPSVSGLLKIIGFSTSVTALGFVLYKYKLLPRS
Method: Monoamine oxidase A (MAO-A) assay
Compounds were tested for their capacity to modulate MAO-A activity within the MAO-Glo™ Assay (Promega, Cat.# V1402). In each well of a 96-well plate, 12.5 µl of 4X MAO Substrate solution (end-concentration in assay: 40 µM) were mixed with 12.5 µl of a 4X solution of the corresponding test compound (end-concentrations ranged from 10 µM to 1.37 nM). In the absence of a test compound (i.e. to gauge the total MAO-A activity), the corresponding volume of MAO Reaction Buffer (100 mM HEPES (pH 7.5), 5% glycerol) was added. To initiate the MAO reaction, 25 µl of 2X MAO-A enzyme solution (MAO-A human - recombinant, Sigma-Aldrich, Cat.# M7316; 1 µg MAO-A enzyme/25 µl MAO Reaction Buffer) were added per well and mixed briefly. For negative control reactions, 25µl of MAO Reaction Buffer were added. Thereafter the plate was incubated at room temperature for 1 hour, following which, 50 µl of reconstituted Luciferin Detection Reagent were added per well and mixed briefly. The plate was then incubated at room temperature for 20 minutes to generate and stabilize the luminescent signal. The luminescent signal was subsequently measured and recorded on the TopCountNXT™ luminescence counter (PerkinElmer). Data were analyzed and graphs were prepared using the Graphpad Prism 6 software.

[3] = target: T2, MAO-B human - recombinant (Homo sapiens, UniProt P27338); assay: MAO-B assay (MAO-Glo Assay); format: biochemical; details: MAO substrate 4 µM; 1 hour at room temperature; read-out: MAO B binding
T2 construct: purchased Sigma-Aldrich M7441
T2 sequence (P27338 1-520): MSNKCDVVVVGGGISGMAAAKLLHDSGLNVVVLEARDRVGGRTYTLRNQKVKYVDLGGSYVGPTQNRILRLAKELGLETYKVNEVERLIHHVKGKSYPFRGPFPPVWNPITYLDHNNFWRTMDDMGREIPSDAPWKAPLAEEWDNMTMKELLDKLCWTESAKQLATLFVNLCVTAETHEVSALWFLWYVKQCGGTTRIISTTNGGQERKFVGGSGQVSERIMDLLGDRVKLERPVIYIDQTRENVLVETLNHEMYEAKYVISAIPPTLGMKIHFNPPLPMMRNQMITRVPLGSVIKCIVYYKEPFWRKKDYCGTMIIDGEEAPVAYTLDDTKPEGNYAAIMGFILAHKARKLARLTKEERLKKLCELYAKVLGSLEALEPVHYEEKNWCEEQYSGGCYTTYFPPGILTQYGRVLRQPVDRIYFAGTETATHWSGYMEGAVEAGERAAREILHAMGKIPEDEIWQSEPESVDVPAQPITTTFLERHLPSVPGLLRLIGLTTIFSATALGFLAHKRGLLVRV
Method: Compounds were tested for their capacity to modulate MAO-B activity within the MAO-Glo™ Assay (Promega, Cat.# V1402). In each well of a 96-well plate, 12.5 µl of 4X MAO Substrate solution (end-concentration in assay: 4 µM) were mixed with 12.5 µl of a 4X solution of the corresponding test compound (end-concentrations ranged from 10 µM to 1.37 nM). In the absence of a test compound (i.e. to gauge the total MAO-B activity), the corresponding volume of MAO-B Reaction Buffer (100 mM HEPES (pH 7.5), 5% glycerol, 10% dimethyl sulphoxide) was added. To initiate the MAO reaction, 25 µl of 2X MAO-B enzyme solution (MAO-B human - recombinant, Sigma-Aldrich, Cat.# M7441; 1 µg MAO-B enzyme/25 µl MAO-B Reaction Buffer) were added per well and mixed briefly. For negative control reactions, 25µl of MAO-B Reaction Buffer were added. Thereafter the plate was incubated at room temperature for 1 hour, following which, 50 µl of reconstituted Luciferin Detection Reagent were added per well and mixed briefly. The plate was then incubated at room temperature for 20 minutes to generate and stabilize the luminescent signal. The luminescent signal was subsequently measured and recorded on the TopCountNXT™ luminescence counter (PerkinElmer). Data were analyzed and graphs were prepared using the Graphpad Prism 6 software.

CCn1c2ccncc2c2ccc(N3CCC(OCCF)CC3)nc21 [Example 1]
Direct staining of tau tangles/Aβ plaques on AD brain sections at 100 µM [1]: -

Cn1c2ccncc2c2ccc(N3CCOC(CCF)C3)nc21 (stereo not drawn) [Example 16]
Direct staining of tau tangles/Aβ plaques on AD brain sections at 100 µM [1]: -

CN(CCF)C1CCN(c2ccc3c4cnccc4n(C)c3n2)CC1 [Example 3]
Direct staining of tau tangles/Aβ plaques on AD brain sections at 100 µM [1]: -

OC(CF)COC1CCN(c2ccc3c(n2)[nH]c2ccncc23)CC1 (stereo not drawn) [Example 10]
IC50 [2]: 790 nM
IC50 [3]: > 1000 nM

CCn1c2ccncc2c2ccc(N3CCC(OCC(O)CF)CC3)nc21 (stereo not drawn) [Example 6]
Direct staining of tau tangles/Aβ plaques on AD brain sections at 100 µM [1]: ++
Direct staining of tau tangles/Aβ plaques on AD brain sections at 100 µM: structure stained [1]: (tangles)

Cn1c2ccncc2c2ccc(N3CC4CC(C3)C4OCCF)nc21 (stereo not drawn) [Example 13]
Direct staining of tau tangles/Aβ plaques on AD brain sections at 100 µM [1]: ++
Direct staining of tau tangles/Aβ plaques on AD brain sections at 100 µM: structure stained [1]: (tangles)

Cn1c2ccncc2c2ccc(N3CCC(OCC(O)CF)CC3)nc21 (stereo not drawn) [Example 5]
IC50 [2]: 430 nM
Direct staining of tau tangles/Aβ plaques on AD brain sections at 100 µM [1]: ++
Direct staining of tau tangles/Aβ plaques on AD brain sections at 100 µM: structure stained [1]: (tangles)
IC50 [3]: > 1000 nM

Cn1c2ccncc2c2ccc(N3CCC(COCCF)CC3)nc21 [Example 14]
Direct staining of tau tangles/Aβ plaques on AD brain sections at 100 µM [1]: -

Cn1c2ccncc2c2ccc(N3CCN(CC(O)CF)CC3)nc21 (stereo not drawn) [Example 12]
IC50 [2]: 940 nM
Direct staining of tau tangles/Aβ plaques on AD brain sections at 100 µM [1]: +
Direct staining of tau tangles/Aβ plaques on AD brain sections at 100 µM: structure stained [1]: (tangles)
IC50 [3]: > 1000 nM
